Measurements published in patent US8143374B2, “Polypeptide derivatives of parathyroid hormone (PTH)” (The General Hospital Corporation, priority 2006, dated 2012).
Where two headings read alike, the source gives them in different places. Where a SMILES comes first, the peptide text is derived from it. [ ]: non-standard residue; d: D form. Cha = N[C@@H](CC1CCCCC1)C(=O)O

Tests used:
[1] = Circular dichroism spectroscopy, helical residues per peptide chain; assay type: physicochemical; conditions: [Ala1,Arg19]hPTH(1-31)NH2 analogs; calculated from [θ]222
Method: Circular Dichroism—CD spectra were obtained on a JASCO J-600 spectropolarimeter at 20° C. Four spectra were averaged and the data smoothed by the JASCO software. The instrument was calibrated with ammonium (+)-10-camphorsulfonate. Peptide concentrations were verified from the absorption at 280 nm, using an extinction coefficient of 5700 M^−1 for the single tryptophan. Data are expressed as the number of helical residues per peptide chain, as calculated from −[θ]222×30/28,000, where [θ]222 is the mean residue elipticity ([θ]) at 222 nm, as was described previously (Barbier, J. R., et al. (2005) J Biol Chem. 280:23771-23777).

PTHR-delNt = molecular target: T1, PTHR-delNt (Homo sapiens, UniProt Q03431, DEL24-181); experiment: Competition binding in COS-7 cell membranes with 125I-[Aib1,3,M]PTH(1-15)NH2 tracer; conditions: for reduction (alteration) of binding affinity for PTHR-delNt relative to parent peptide: versus the respective parent peptide; for IC50: COS-7 membranes cotransfected with negative-dominant Gαs
T1 construct: expressed in transfected cells; host or cells: COS-7 cells, transient co-transfection; membranes prepared
T1 sequence (Q03431 with tags, fused parts or gaps DEL24-181): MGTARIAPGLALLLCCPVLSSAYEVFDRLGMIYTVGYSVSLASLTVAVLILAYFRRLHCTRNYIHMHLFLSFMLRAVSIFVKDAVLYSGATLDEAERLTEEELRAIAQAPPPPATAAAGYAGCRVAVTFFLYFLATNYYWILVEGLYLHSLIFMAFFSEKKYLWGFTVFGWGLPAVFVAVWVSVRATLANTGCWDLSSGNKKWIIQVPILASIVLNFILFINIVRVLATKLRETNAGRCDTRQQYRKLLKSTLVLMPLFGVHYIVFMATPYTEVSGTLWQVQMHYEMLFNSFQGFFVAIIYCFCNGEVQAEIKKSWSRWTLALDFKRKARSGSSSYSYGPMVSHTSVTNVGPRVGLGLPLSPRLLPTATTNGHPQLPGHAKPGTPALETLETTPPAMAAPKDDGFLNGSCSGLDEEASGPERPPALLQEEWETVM
Method: PTHR-delNt is a derivative of the human PTHR that is deleted for most (Ala^24-Arg^181) of the amino-terminal extracellular domain (Shimizu, M., et al. (2001) Endocrinology 142:3068-3074). This PTHR construct was expressed in COS-7 cells via transient DNA transfection. For cAMP assays, the cells were transfected in 24-well plates using 0.2 μg of plasmid DNA and 0.6 μl of Fugene-6 reagent (Roche Diagnostics, Indianapolis Ind.) per well, and assays were performed on the intact cells three to four days after transfection. For binding assays, cell membranes were prepared from transfected COS-7 cells. To increase the maximal binding of ^125I-[Aib^1,3,M]PTH(1-15)NH2 to PTHR-delNt in these membranes, the cells were cotransfected with a negative dominant mutant Gαs protein (Gαs^ND). This mutant Gαs subunit is thought to couple to cognate receptors, and thus stabilize high affinity receptor conformations, more efficiently than does wild-type Gαs, without increasing basal cAMP levels (Berlot, C. H. (2002) J Biol Chem 277:21080-5). A precursor of this mutant Gαs, Gαs(α3β5), was recently used to increase binding of ^125I-[Aib^1,3,M]PTH(1-15)NH2 to PTHR-delNt in COS-7 cell membranes (Dean, T., (2006) Mol Endocrinol 20:931-942). Gαs^ND, which contains the same five amino acid replacement of corresponding Gαi residues in the α3β5 loop as Gαs(α3β5), plus the point mutations of Gly^226 to Ala, which increases affinity for Gβ/γ, and Ala^366 to Ser, which decreases affinity for GDP, yields approximately two-fold higher levels of specific binding of ^125I-[Aib^1,3,M]PTH(1-15)NH2 than does Gαs(α3β5) (data not shown). For the current membrane preparations, COS-7 cells were co-transfected in six-well plates using 1 μg of each plasmid DNA encoding PTHR-delNt and Gαs^ND, and 6 μl of Fugene-6 reagent (Roche Diagnostics, Indianapolis Ind.) per well. Cells were harvested three days after transfection, and membranes were prepared as described (Dean, T., et al. (2006) Mol Endocrinol 20:931-942).
Receptor binding—Binding to the wild-type human PTHR in intact HKRK-B7 cells and ROS 17/2.8 cells was assessed using ^125I-PTH(1-34) as a tracer radioligand, as described (Shimizu, M., (2001) Endocrinology 142:3068-3074). In brief, the cells in 24-well plates (about 500,000 cells per well) were incubated in binding buffer containing radioligand (about 100,000 cpm per well) with or without unlabeled peptide ligand (3×10^−9 to 1×10^−5 M) for four hours at 15° C. The binding mixture was then removed by aspiration, the cells were rinsed three times with binding buffer, lysed in 1 M NaOH, and the entire lysate was counted for gamma-irradiation in a gamma counter. Binding to PTHR-delNt in COS-7 cell membranes was assessed in 96-well, vacuum filtration plates (Multiscreen-Durapore HV, […] membranes, Millipore Corp., Millford, Mass.) using ^125I-[Aib^1,3,M]PTH(1-15)NH2 as a tracer radioligand, as described (Dean, T., (2006) Mol Endocrinol 20:931-942). In brief, cell membranes (20 μg/well) were incubated in membrane binding buffer containing radioligand (30,000 cpm/well) with or without unlabeled peptide ligand (3×10^−9 to 1×10^−5 M) for 90 minutes at 21° C. The plates were then subject to rapid vacuum filtration, the filters were washed once with buffer, detached from the plate and counted for gamma-irradiation in a gamma counter. Non-specific binding was defined as the binding observed in the presence of 1×10^−6 M PTH(1-31)NH2 for HKRK-B7 and ROS 17/2.8 cells, and 1×10^−6 M [Aib^1,3,M]PTH(1-15)NH2 for PTHR-delNt. Specifically bound radioactivity was calculated as a percentage of the radioactivity specifically bound in the absence of competing ligand. […]

[2] = [Ala1,Arg19]hPTH(1-31)NH2 analogs, read-out: PTHR-delNT (COS-7) IC50

Row | SMILES | CD helical residues [1] | reduction (alteration) of binding affinity for PTHR-delNt relative to parent peptide (PTHR-delNt; COS-7 membranes) | IC50 (PTHR-delNt; PTHR-delNT (COS-7) IC50, [Ala1,Arg19]hPTH(1-31)NH2 analogs) [nM] | effect on binding to PTHR-delNt (in words) (PTHR-delNt; COS-7 membranes) | IC50 (PTHR-delNt; [2]) [nM]
1 | CC[C@H](C)[C@H](NC(=O)[C@H](CCC(=O)O)NC(=O)[C@H](CO)NC(=O)[C@@H](NC(=O)[C@H](C)N)C(C)C)C(=O)N[C@@H](CCC(N)=O)C(=O)N[C@@H](CC(C)C)C(=O)N[C@@H](CCSC)C(=O)N[C@@H](Cc1c[nH]cn1)C(=O)N[C@@H](CC(N)=O)C(=O)N[C@@H](CC(C)C)C(=O)NCC(=O)N[C@@H](CCCCN)C(=O)N[C@@H](Cc1c[nH]cn1)C(=O)N[C@@H](CC(C)C)C(=O)N[C@@H](CC(N)=O)C(=O)N[C@@H](CO)C(=O)N[C@@H](CCSC)C(=O)N[C@@H](CCCNC(=N)N)C(=O)N[C@@H](CCCNC(=N)N)C(=O)N[C@H](C(=O)N[C@@H](CCC(=O)O)C(=O)N[C@@H](Cc1c[nH]c2ccccc12)C(=O)N[C@@H](CC(C)C)C(=O)N[C@@H](CC1CCCCC1)C(=O)N[C@@H](CCCCN)C(=O)N[C@@H](CCCCN)C(=O)N[C@@H](CC(C)C)C(=O)N[C@@H](CCC(N)=O)C(=O)N[C@@H](CC(=O)O)C(=O)N[C@H](C(N)=O)C(C)C)C(C)C [Arg^25→Cha] (H-AVSEIQLMHNLGKHLNSMRRVEWL[Cha]KKLQDV-NH2; N-terminus assumed) | 9 | approximately five- to seven-fold | 2710 ± 1310 | – | –
2 | CC[C@H](C)[C@H](NC(=O)[C@H](CCC(=O)O)NC(=O)[C@H](CO)NC(=O)[C@@H](NC(=O)[C@H](C)N)C(C)C)C(=O)N[C@@H](CCC(N)=O)C(=O)N[C@@H](CC(C)C)C(=O)N[C@@H](CCSC)C(=O)N[C@@H](Cc1c[nH]cn1)C(=O)N[C@@H](CC(N)=O)C(=O)N[C@@H](CC(C)C)C(=O)NCC(=O)N[C@@H](CCCCN)C(=O)N[C@@H](Cc1c[nH]cn1)C(=O)N[C@@H](CC(C)C)C(=O)N[C@@H](CC(N)=O)C(=O)N[C@@H](CO)C(=O)N[C@@H](CCSC)C(=O)N[C@@H](CCCNC(=N)N)C(=O)N[C@@H](CCCNC(=N)N)C(=O)N[C@H](C(=O)N[C@@H](CCC(=O)O)C(=O)N[C@@H](Cc1c[nH]c2ccccc12)C(=O)N[C@@H](CC1CCCCC1)C(=O)N[C@@H](CCCNC(=N)N)C(=O)N[C@@H](CCCCN)C(=O)N[C@@H](CCCCN)C(=O)N[C@@H](CC(C)C)C(=O)N[C@@H](CCC(N)=O)C(=O)N[C@@H](CC(=O)O)C(=O)N[C@H](C(N)=O)C(C)C)C(C)C [Leu^24→Cha] (H-AVSEIQLMHNLGKHLNSMRRVEW[Cha]RKKLQDV-NH2; N-terminus assumed) | 9 | three-fold or less | – | little or no effect on binding to PTHR-delNt | 283 ± 68
3 | CC[C@H](C)[C@H](NC(=O)[C@H](CCC(=O)O)NC(=O)[C@H](CO)NC(=O)[C@@H](NC(=O)[C@H](C)N)C(C)C)C(=O)N[C@@H](CCC(N)=O)C(=O)N[C@@H](CC(C)C)C(=O)N[C@@H](CCSC)C(=O)N[C@@H](Cc1c[nH]cn1)C(=O)N[C@@H](CC(N)=O)C(=O)N[C@@H](CC(C)C)C(=O)NCC(=O)N[C@@H](CCCCN)C(=O)N[C@@H](Cc1c[nH]cn1)C(=O)N[C@@H](CC(C)C)C(=O)N[C@@H](CC(N)=O)C(=O)N[C@@H](CO)C(=O)N[C@@H](CCSC)C(=O)N[C@@H](CCCNC(=N)N)C(=O)N[C@@H](CCCNC(=N)N)C(=O)N[C@H](C(=O)N[C@@H](CCC(=O)O)C(=O)N[C@@H](Cc1c[nH]c2ccccc12)C(=O)N[C@@H](CC(C)C)C(=O)N[C@@H](CCCNC(=N)N)C(=O)N[C@@H](CCCCN)C(=O)N[C@@H](CC1CCCCC1)C(=O)N[C@@H](CC(C)C)C(=O)N[C@@H](CCC(N)=O)C(=O)N[C@@H](CC(=O)O)C(=O)N[C@H](C(N)=O)C(C)C)C(C)C [Lys^27→Cha] (H-AVSEIQLMHNLGKHLNSMRRVEWLRK[Cha]LQDV-NH2; N-terminus assumed) | 18 | – | – | – | 629 ± 72
